Test results from ChEMBL document CHEMBL4725445, “Discovery of a Cyclic Choline Analog That Inhibits Anaerobic Choline Metabolism by Human Gut Bacteria” (ACS Med Chem Lett, 2020).

Legend:
[1] = Inhibition of CutC in Escherichia coli MS 200-1 assessed as reduction in TMA formation incubated for 3.5 hrs under anaerobic condition in presence of d9-choline by LC-MS-MS analysis
[2] = Inhibition of Escherichia coli MS 69-1 CutC assessed as TMA formation by LC-MS/MS
[3] = Inhibition of TMA formation in human fecal suspension by LC-MS/MS; assay type: functional, tissue-based, Feces
[4] = Inhibition of Proteus mirabilis CutC assessed as TMA formation by LC-MS/MS
[5] = Inhibition of Klebsiella sp. MS 92-3 CutC assessed as TMA formation by LC-MS/MS; design: species or system Klebsiella pneumoniae
[6] = Inhibition of Clostridium sporogenes CutC assessed as TMA formation by LC-MS/MS
[7] = target: T1, Choline trimethylamine-lyase (Desulfovibrio alaskensis, UniProt Q30W70); experiment: Inhibition of Desulfovibrio desulfuricans (strain G20) CutC assessed as reduction in TMA by spectrophotometry
T1 sequence (Q30W70 whole entry): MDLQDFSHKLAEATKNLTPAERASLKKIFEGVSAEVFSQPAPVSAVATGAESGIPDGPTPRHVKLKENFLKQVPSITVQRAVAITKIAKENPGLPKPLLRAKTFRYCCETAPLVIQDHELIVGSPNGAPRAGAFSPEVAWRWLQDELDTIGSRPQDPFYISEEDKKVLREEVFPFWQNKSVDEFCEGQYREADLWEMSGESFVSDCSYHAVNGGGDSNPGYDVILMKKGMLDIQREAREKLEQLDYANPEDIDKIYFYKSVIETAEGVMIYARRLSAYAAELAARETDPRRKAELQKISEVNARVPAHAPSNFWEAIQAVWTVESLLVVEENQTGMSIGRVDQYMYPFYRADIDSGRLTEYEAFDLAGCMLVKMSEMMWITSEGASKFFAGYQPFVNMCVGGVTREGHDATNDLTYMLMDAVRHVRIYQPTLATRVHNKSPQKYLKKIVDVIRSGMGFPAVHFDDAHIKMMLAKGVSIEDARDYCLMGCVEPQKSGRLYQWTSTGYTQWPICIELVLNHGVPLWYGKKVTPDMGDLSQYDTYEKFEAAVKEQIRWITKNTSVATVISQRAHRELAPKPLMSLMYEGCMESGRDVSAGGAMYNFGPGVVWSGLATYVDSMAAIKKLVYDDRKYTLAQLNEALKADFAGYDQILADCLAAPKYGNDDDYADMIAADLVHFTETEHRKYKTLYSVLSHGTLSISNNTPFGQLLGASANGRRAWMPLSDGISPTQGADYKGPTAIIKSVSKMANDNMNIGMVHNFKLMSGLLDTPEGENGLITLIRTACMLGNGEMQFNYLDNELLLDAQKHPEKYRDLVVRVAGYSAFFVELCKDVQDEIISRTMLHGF

SMILES: CN1CCC(O)CC1
- IC50 [1]: 1600 µM

SMILES: CN1CC=C[C@H](O)C1
- IC50 [2]: 22 µM
- IC50 [1]: 9.8 µM
- IC50 [3]: 60 µM
- IC50 [4]: 92 µM
- IC50 [5]: 4 µM
- IC50 [6]: 12 µM

SMILES: CN1CCCC(=O)C1
- IC50 [1]: 27000 µM
- IC50 [7]: > 10000 µM

SMILES: CN1CCC(O)C1 (stereo not drawn)
- IC50 [1]: 6300 µM

SMILES: CC1=CC(O)CN(C)C1 (stereo not drawn)
- IC50 [1]: 920 µM

SMILES: OC1C=CCN(C2CCC2)C1 (stereo not drawn)
- IC50 [1]: 190 µM
- IC50 [7]: 200 µM

SMILES: [2H]C1(O)C=CCN(C)C1 (stereo not drawn)
- IC50 [1]: 30 µM

SMILES: CN1CC=CC(O)C1 (stereo not drawn)
- IC50 [1]: 10 µM

SMILES: CC(=O)OC1C=CCN(C)C1 (stereo not drawn)
- IC50 [1]: 1800 µM

SMILES: C[N+]1(C)CC=CC(O)C1 (stereo not drawn)
- IC50 [1]: 7.6 µM

SMILES: CCCN1CC=CC(O)C1 (stereo not drawn)
- IC50 [1]: 200 µM

SMILES: CN1CC=C[C@@H](O)C1
- IC50 [1]: 31 µM

SMILES: OC1C=CCOC1 (stereo not drawn)
- IC50 [1]: 80 µM

SMILES: OC1C=CCN(Cc2ccccc2)C1 (stereo not drawn)
- IC50 [1]: 370 µM

SMILES: OC1C=CCCC1 (stereo not drawn)
- IC50 [1]: 260 µM

SMILES: CN1CCCC(O)CC1 (stereo not drawn)
- IC50 [1]: 760 µM

SMILES: C[N+](C)(C)CC=O [BETAINE ALDEHYDE]
- IC50 [2]: 465 µM
- IC50 [3]: 1270 µM
- IC50 [4]: 2490 µM
- IC50 [5]: 212 µM
- IC50 [6]: 1000 µM
